The values below come from US6413947B1, “Anilide derivative, production and use thereof” (Takeda Chemical Industries, Ltd., priority 1997, dated 2002).

Counter-ions that a name gives are not always drawn.

By melting point is commonly meant the temperature, or range, at which the solid turns liquid.

For the compound `Cc1ccc(-c2ccc3c(c2)C=C(C(=O)Nc2ccc(C[N+]4(C)CCCCC4)cc2)CCC3)cc1` (as salt: iodide) [Compound 92, 1—(N-(2—(4-methylphenyl)-6,7-dihydro-5H-benzocycloheptene-8-carbonyl)-4-aminobenzyl)-1-methylpiperidinium iodide], the melting point was 220 to 221 °C (dec.).
As for `COCCN(C)Cc1ccc(NC(=O)C2=Cc3cc(-c4ccc(C)cc4)ccc3OCC2)cc1` [Compound 314, N-(4-((N-(2-methoxyethyl)-N-methylamino)methyl)phenyl)-7-(4-methylphenyl)-2,3-dihydro-1-benzoxepine-4-carboxamide], the figure is 121 to 122 °C; as for `CN(Cc1ccc(NC(=O)C2=Cc3cc(-c4ccc(-n5ccnc5)cc4)ccc3OCC2)cc1)C1CCOCC1` [Compound 153, 7—(4—(1-imidazolyl)phenyl)-N-(4—((N-tetra-hydropyran-4-yl-N-methylamino)methyl)phenyl)-2,3-dihydro-1-benzoxepine-4-carboxamide], 194 to 195 °C.
On to `Cc1ccc(-c2ccc3c(c2)C=C(C(=O)Nc2ccc(C(=O)C4CCCCN4C)cc2)CCO3)cc1` (centres unmarked), for which the melting point lay within 162 to 163 °C.
As for `Cc1ccc(-c2cc3c(s2)CCCC(C(=O)Nc2ccc(CN(C)C4CCOCC4)cc2)=C3)cc1` [Compound 214, N-[4-[N-methyl-N-(tetrahydropyran-4-yl)aminomethyl]-phenyl]-2—(4-methylphenyl)-7,8-dihydro-6H-cyclohepta-[b]thiophene-5-carboxamide], the figure is 201 to 203 °C.
In turn, `Cc1ccc(-c2ccc3c(c2)C=C(C(=O)Nc2ccc(CSc4ccccc4)cc2)CCO3)cc1` [Compound 82, 7—(4-methylphenyl)-N-(4—(phenyl-thiomethyl)phenyl)-2,3-dihydro-1-benzoxepine-4-carboxamide] had a melting point of 176 to 177 °C.
The compound `Cc1ccc(-c2ccc3c(c2)C=C(C(=O)Nc2ccc(CN(C(C)C)C(C)C)cc2)CCO3)cc1` [Compound 119, N-(4—((diisopropylamino)methyl)phenyl)-7—(4-methylphenyl)-2,3-dihydro-1-benzoxepine-4-carboxamide] had a melting point of 152 to 153 °C.
As for `Cc1ccc(-c2ccc3c(c2)C=C(C(=O)Nc2ccc(CP4(=O)CCCCC4)cc2)CCC3)cc1` [Compound 252, 2-(4-methylphenyl)-N-(4-((1-oxophosphorinane-1-yl)methyl)phenyl)-6,7-dihydro-5H-benzocycloheptene-8-carboxamide], the figure is 282 to 283 °C (dec.).
Compound `Cc1ccc(-c2ccc3c(c2)C=C(C(=O)Nc2ccc(CN(C)C4CCOCC4)cc2)CCN3C=O)cc1` [Compound 317, 1-formyl-7-(4-methylphenyl)-N-[4-[[N-methyl-N-(tetrahydro-2H-pyran-4-yl)amino]methyl]phenyl]-2,3-dihydro-1-benzazepine-4-carboxamide] gave a melting point of 229 to 230.5 °C.
As for `Cc1ccc(-c2ccc3c(c2)C=C(C(=O)Nc2ccc(C(O)c4cccc[n+]4[O-])cc2)CCO3)cc1` (centres unmarked) [Compound 167, N-[4-[hydroxy(1-oxidopyridin-2-yl)methyl]phenyl]-7—(4-methylphenyl)-2,3-dihydro-1-benzoxepine-4-carboxamide], the figure is 208 to 210 °C; as for `Cc1ccc(-c2cccc(/C=C/C(=O)Nc3ccc(CN4CCCCC4)cc3)c2)cc1` [Compound 70, (E)-N-[4—(piperidinomethyl)phenyl]-3—(4-methylphenyl)cinnamamide], 154 to 156 °C; as for `CN1CCC(C(=O)Nc2ccc(CN(C)C3CCOCC3)cc2)=Cc2cc(-c3ccc(C(F)(F)F)cc3)ccc21` [Compound 308, 1-methyl-N-[4-[[N-methyl-N-(tetrahydropyran-4-yl)amino]-methyl]phenyl]-7-(4-trifluoromethylphenyl)-2,3-dihydro-1-benzoazepine-4-carboxamide], 187.5 to 188.5 °C.
As for `CN(C)Cc1ccc(NC(=O)C2=Cc3cc(-c4ccccc4)ccc3CC2)cc1` [Compound 6, N-[4—(dimethylaminomethyl)-phenyl]-7-phenyl-3,4-dihydro-naphthalene-2-carboxamide], the figure is 182 to 184 °C.
As for `Cc1ccc(-c2cccc(/C=C/C(=O)Nc3ccc(CN4CCN(Cc5ccc6c(c5)OCO6)CC4)cc3)c2)cc1` [Compound 57, (E)-N-[4-[1—(3,4-methylenedioxybenzyl)-4-piperazinylmethyl]phenyl]-3—(4-methylphenyl)cinnamamide], the figure is 204 to 207 °C; as for `Cc1ccc(-c2ccc3c(c2)C=C(C(=O)Nc2ccc(C(O)CN4CCCCC4)cc2)CCO3)cc1` (centres unmarked) [Compound 145, N-(4—(1-hydroxy-2-piperidinoethyl)phenyl)-7—(4-methylphenyl)-2,3-dihydro-1-benzoxepine-4-carboxamide], 212 to 213 °C; as for `COc1cccnc1C(O)c1ccc(NC(=O)C2=Cc3cc(-c4ccc(C)cc4)ccc3OCC2)cc1` (centres unmarked) [Compound 169, N-[4-[hydroxy(3-methoxy-pyridin-2-yl)methyl]phenyl]-7—(4-methylphenyl)-2,3-dihydro-1-benzoxepine-4-carboxamide], 232 to 233 °C.
`Cc1ccc(-c2cccc(/C=C/C(=O)Nc3ccc(Cc4ccccn4)cc3)c2)cc1` [Compound 190, (E)-N-[4—(2-pyridylmethyl)phenyl]-3—(4-methylphenyl)cinnamamide] registered a melting point of 169 to 171 °C.
As for `Cc1ccc(-c2ccc3c(c2)C=C(C(=O)Nc2ccc(CN4CCCCC4)cc2)CC(C)O3)cc1` (centres unmarked) [Compound 105, 7—(4-methylphenyl)-2-methyl-N-(4—(piperidinomethyl)phenyl)-2,3-dihydro-1-benzoxepine-4-carboxamide], the figure is 175 to 176 °C; as for `Cc1ccc(-c2ccc3c(c2)C=C(C(=O)Nc2ccc(C[N+]4(C)CCCCC4)cc2)CCS3)cc1` (as salt: iodide) [Compound 94, 1—(N-(7—(4-methylphenyl)-2,3-dihydro-1-benzo-thiepine-4-carbonyl)-4-aminobenzyl)-1-methyl-piperidinium iodide], 196 to 197 °C; as for `O=C(Nc1ccc(CN2CCOCC2)cc1)C1=Cc2cc(-c3ccccc3)ccc2CC1` [Compound 8, N-[4—(morpholinomethyl)-phenyl]-7-phenyl-3,4-dihydronaphthalene-2-carboxamide], 186 to 187 °C.
For `Cc1ccc(-c2ccc3c(c2)C=C(C(=O)Nc2ccc(C[N+](C)(C)C4CCOCC4)cc2)CCS3)cc1.[I-]` [Compound 241, dimethyl-(N-(7-(4-methylphenyl)-2,3-dihydro-1-benzothiepine-4-carbonyl)-4-aminobenzyl)-N-(4-tetrahydropyranyl)ammonium iodide], the melting point is 220 to 222 °C (dec.).
As for `O=C(Nc1cccc(CN2CCCCC2)c1)C1=Cc2cc(-c3ccccc3)ccc2CC1` [Compound 217, 7-phenyl-N-[3—(piperidinomethyl)phenyl]-3,4-dihydronaphthalene-2-carboxamide], the figure is 152 to 153 °C.
Compound `CCOc1ccc(-c2ccc3c(c2)C=C(C(=O)Nc2ccc(CN(C)C4CCOCC4)cc2)CCO3)cc1` [Compound 185, 7—(4-ethoxyphenyl)-N-(4-[N-methyl-N-(tetrahydropyran-4-yl)aminomethyl]phenyl]-2,3-dihydro-1-benzoxepine-4-carboxamide] returned a melting point of 174 to 176 °C.
